Data reported in PMC6182381, “Population Pharmacokinetics and Exposure-Response Relationships of Naldemedine” (Pharmaceutical Research, 2018).
Like-named read-outs stand apart in the source and are kept apart here.

Legend:
[1] = Population PK analysis of plasma naldemedine concentrations (NONMEM, 2-compartment model); format: in vivo, human; conditions: for AUC: human, plasma, oral
Procedure: A population PK model was developed with pooled naldemedine concentrations from healthy subjects, patients with chronic non-cancer pain and OIC, and cancer patients with OIC as described in Table I. Blood sampling times for PK analysis in each study are shown in Supplemental Table S1. All studies were performed in accordance with the Declaration of Helsinki, the International Conference on Harmonization (ICH) E6 Guidance for Good Clinical Practice and all other applicable regulatory requirements. Study protocols were approved by the responsible institutional review boards. Written informed consent for each clinical study was obtained from all subjects.
Background data available for subjects were summarized and used as candidate covariates: age, body weight, body mass index (BMI), albumin (ALBU), aspartate aminotransferase (AST) and alanine aminotransferase (ALT), total bilirubin (Tbil), and creatinine clearance (CLcr) at baseline as continuous data, and gender (male, female), race/ethnicity (“White” or “non-White”, “Japanese” or “non-Japanese”, “Hispanic or Latino” or “non-Hispanic or non-Latino”), health status (healthy subjects/ Patients with chronic non-cancer pain and OIC/ Cancer patients with OIC), dosing conditions (dosing in the fasted/fed state, with/without concomitant use of P-gp/CYP3A inhibitor/inducer), and formulation (“solution or suspension”, “phase 1 or 2 tablet”, “phase 3 tablet”) as categorical data. Background data at baseline were obtained from observations prior to or on the first day of dosing, or at screening if this value was not available. Categorical age (<65 years or ≥ 65 years) was also used. CLcr was calculated using the Cockcroft-Gault eq. ([12]). Data from the concomitant treatment period in the phase 1 DDI studies [1202 V9218, 1403V921D, and 1502V921E]), in which co-administrations of P-gp/CYP3A inhibitor/inducer (cyclosporine, rifampin, itraconazole, or fluconazole) with naldemedine were designed as the worst case scenario for each inhibitor/inducer (single dose of cyclosporine 600 mg, rifampin 600 mg for 17 days, itraconazole 200 mg for 7 days, fluconazole 200 mg for 7 days), were excluded from the population PK analysis because they were not clinically relevant to the OIC treatment. Food condition was assumed as fasted in phase 2b studies (1107 V9221 and 1108 V9222), in which the date/time of food intake had not been recorded. Food condition was defined as fasted in cases where naldemedine was administered more than 1 h after the food intake in phase 3 studies (1314 V9231, 1315 V9232, 1331 V9236, 1336 V9238, and 1339 V9239).
The bioanalytical methods for determination of concentrations of naldemedine and its metabolites in human plasma were validated with the lower limit of quantification (LLOQ) being 0.01 ng/ml for naldemedine ([11]). Plasma samples were analyzed after solid phase extraction by a liquid chromatography/mass spectrometry/mass spectrometry (LC/MS/MS) method using the positive ion mode and multiple reaction monitoring. All the analytical methods were validated across the calibration range with respect to selectivity, recovery, accuracy, precision, and stability under a variety of conditions.
The population PK analysis was performed by using the non-linear mixed effect modeling software NONMEM (version 7.3, ICON Development Solutions, US), with PREDPP library and NM-TRAN preprocessor ([13]). To support analyses by NONMEM, Perl-speaks-NONMEM (PsN) (version 4.2) and Xpose (version 4.2.1) were used ([14]). The first order conditional estimation with interaction (FOCE-I) method was used for the analysis.
The PK profiles of naldemedine were examined using conventional compartment disposition models with first order absorption based on the PK in healthy volunteers ([11]). To determine the basic structural PK model for naldemedine, 1-, 2- and 3-compartment models with first order absorption were tested. […]

[2] = system: patients with chronic non-cancer pain and OIC; design: method as in PMID 28576452; conditions: cited from earlier work
[3] = 1314V9231_1315V9232 (Phase 3), 0.2 mg
[4] = final model, bootstrap estimates

## CC(C)(NC(=O)C1=C(O)[C@@H]2Oc3c(O)ccc4c3[C@@]23CCN(CC2CC2)[C@H](C4)[C@]3(O)C1)c1nc(-c2ccccc2)no1 [naldemedine]
[1]; 1107V9221 (Phase 2b), 0.1 mg
  Empirical Bayesian-estimated AUCss, Max: 13.49 ng·h/mL
  Empirical Bayesian-estimated AUCss, Min: 7.02 ng·h/mL
[1]; 1107V9221 (Phase 2b), 0.2 mg
  Empirical Bayesian-estimated AUCss, Max: 51.36 ng·h/mL
  Empirical Bayesian-estimated AUCss, Min: 12.66 ng·h/mL
[1]; 1107V9221 (Phase 2b), 0.4 mg
  Empirical Bayesian-estimated AUCss, Max: 74.93 ng·h/mL
  Empirical Bayesian-estimated AUCss, Min: 25.78 ng·h/mL
[1]; [3]
  Empirical Bayesian-estimated AUCss, Max: 92.1 ng·h/mL
  Empirical Bayesian-estimated AUCss, Min: 5.669 ng·h/mL
[1]; 1314V9231_1315V9232, Age 65 -< 75
  Empirical Bayesian-estimated CL/F, Mean: 7.63 L/h
[1]; 1314V9231_1315V9232, Age < 65
  Empirical Bayesian-estimated CL/F, Mean: 8.89 L/h
[1]; 1314V9231_1315V9232, Age >= 65
  Empirical Bayesian-estimated CL/F, Mean: 7.61 L/h
[1]; 1314V9231_1315V9232, Age >= 75
  Empirical Bayesian-estimated CL/F, Mean: 7.54 L/h
[1]; 1314V9231_1315V9232, Asian
  Empirical Bayesian-estimated CL/F, Mean: 13.1 L/h
[1]; 1314V9231_1315V9232, Black
  Empirical Bayesian-estimated CL/F, Mean: 7.51 L/h
[1]; 1314V9231_1315V9232, Female
  Empirical Bayesian-estimated CL/F, Mean: 8.48 L/h
[1]; 1314V9231_1315V9232, Male
  Empirical Bayesian-estimated CL/F, Mean: 9.08 L/h
[1]; 1314V9231_1315V9232, OIC non-Cancer
  Empirical Bayesian-estimated CL/F, Mean: 8.73 L/h
[1]; 1314V9231_1315V9232, White
  Empirical Bayesian-estimated CL/F, Mean: 9.00 L/h
[1]; 1314V9231_1315V9232, non-White
  Empirical Bayesian-estimated CL/F, Mean: 7.59 L/h
[1]; 1314V9231_1315V9232, race Others
  Empirical Bayesian-estimated CL/F, Mean: 6.36 L/h
[1]; 1331V9236 (cancer patients), Age 65 -< 75
  Empirical Bayesian-estimated CL/F, Mean: 7.15 L/h
[1]; 1331V9236 (cancer patients), Age < 65
  Empirical Bayesian-estimated CL/F, Mean: 7.51 L/h
[1]; 1331V9236 (cancer patients), Age >= 65
  Empirical Bayesian-estimated CL/F, Mean: 7.15 L/h
[1]; 1331V9236 (cancer patients), Age >= 75
  Empirical Bayesian-estimated CL/F, Mean: 7.16 L/h
[1]; 1331V9236 (cancer patients), Asian
  Empirical Bayesian-estimated CL/F, Mean: 7.34 L/h
[1]; 1331V9236 (cancer patients), Female
  Empirical Bayesian-estimated CL/F, Mean: 6.54 L/h
[1]; 1331V9236 (cancer patients), Male
  Empirical Bayesian-estimated CL/F, Mean: 7.85 L/h
[1]; 1331V9236 (cancer patients), non-White
  Empirical Bayesian-estimated CL/F, Mean: 7.34 L/h
[1]; 1331V9236, OIC Cancer
  Empirical Bayesian-estimated CL/F, Mean: 7.34 L/h
[1]; base model
  ALAG: 0.195 h
  CL/F: 8.20 L/h
  Inter-individual variability of CL/F: 40.5 CV%
  Inter-individual variability of Ka: 168.2 CV%
  Inter-individual variability of Q/F: 50.5 CV%
  Inter-individual variability of Vc/F: 38.5 CV%
  Inter-individual variability of Vp/F: 37.7 CV%
  Intra-individual variability, proportional: 25.6 CV%
  Ka: 3.81 h⁻¹
  Q/F: 5.02 L/h
  Vc/F: 83.6 L
  Vp/F: 43.2 L
[1]; both sexes, 0.2 mg, reference population, 0.2 mg once daily, read-out: typical AUCss
  AUC: 22 ng·h/mL
[1]; covariates at extreme values
  decrease of population predicted AUCss vs reference population: 25%
  increase of population predicted AUCss vs reference population: 76%
[1]; final model
  ALAG: 0.195 h
  Inter-individual variability of CL/F: 37.9 CV%
  Inter-individual variability of Ka: 161.2 CV%
  Inter-individual variability of Q/F: 46.3 CV%
  Inter-individual variability of Vc/F: 25.3 CV%
  Inter-individual variability of Vp/F: 36.3 CV%
  Intra-individual variability, proportional: 25.7 CV%
  Q/F: 4.77 L/h
  THETA (7), effect of non-Cancer OIC patients on Vc/F: 1.20
  THETA (8), effect of Cancer patients with OIC on Vc/F: 1.27
  THETA (9), effect of fed condition on Vc/F: 1.12
  THETA (11), exponent of Age/52 on Ka: −1.16
  Vp/F: 41.8 L
[1]; [4]
  ALAG, bootstrap median: 0.196 h
  CL/F, THETA (1), bootstrap median: 9.15 L/h
  Inter-individual variability of CL/F, bootstrap median: 38.6 CV%
  Inter-individual variability of Ka, bootstrap median: 161.0 CV%
  Inter-individual variability of Q/F, bootstrap median: 47.5 CV%
  Inter-individual variability of Vc/F, bootstrap median: 25.2 CV%
  Inter-individual variability of Vp/F, bootstrap median: 36.2 CV%
  Intra-individual variability, proportional, bootstrap median: 25.5 CV%
  Ka, THETA (10), bootstrap median: 2.90 h⁻¹
  Q/F, bootstrap median: 4.73 L/h
  THETA (7), non-Cancer on Vc/F, bootstrap median: 1.19
  THETA (8), Cancer on Vc/F, bootstrap median: 1.28
  THETA (9), fed condition on Vc/F, bootstrap median: 1.12
  THETA (11), Age on Ka, bootstrap median: −1.23
  Vc/F, THETA (6), bootstrap median: 76.0 L
  Vp/F, bootstrap median: 41.6
[1]; final model, age 52
  Ka, THETA (10): 2.94 h⁻¹
[1]; final model, healthy subjects, body weight 76 kg, fasted
  Vc/F, THETA (6): 75.9 L
[1]; final model, reference population: 76 kg, non-cancer OIC patients, fasted
  Vc/F: 91.1 L
[1]; final model, reference: 52-year-old, male, White, CLcr 108 ml/min
  CL/F, THETA (1): 9.10 L/h
[1]; 0.1 mg, 1107V9221 (Phase 2b), 0.1 mg, read-out: Empirical Bayesian-estimated AUCss, Geometric Mean
  AUC: 10.2 ng·h/mL
[1]; 0.1 mg, 1107V9221 (Phase 2b), 0.1 mg, read-out: Empirical Bayesian-estimated AUCss, Mean
  AUC: 10.5 ng·h/mL
[1]; 0.1 mg, 1107V9221 (Phase 2b), 0.1 mg, read-out: Empirical Bayesian-estimated AUCss, Median
  AUC: 10.4 ng·h/mL
[1]; 0.2 mg, 1107V9221 (Phase 2b), 0.2 mg, read-out: Empirical Bayesian-estimated AUCss, Geometric Mean
  AUC: 20.3 ng·h/mL
[1]; 0.2 mg, 1107V9221 (Phase 2b), 0.2 mg, read-out: Empirical Bayesian-estimated AUCss, Mean
  AUC: 22.1 ng·h/mL
[1]; 0.2 mg, 1107V9221 (Phase 2b), 0.2 mg, read-out: Empirical Bayesian-estimated AUCss, Median
  AUC: 20.2 ng·h/mL
[1]; 0.2 mg, 1314V9231_1315V9232 (Phase 3), 0.2 mg, read-out: Empirical Bayesian-estimated AUCss, Geometric Mean
  AUC: 25.1 ng·h/mL
[1]; 0.2 mg, 1314V9231_1315V9232 (Phase 3), 0.2 mg, read-out: Empirical Bayesian-estimated AUCss, Mean
  AUC: 27.5 ng·h/mL
[1]; 0.2 mg, 1314V9231_1315V9232 (Phase 3), 0.2 mg, read-out: Empirical Bayesian-estimated AUCss, Median
  AUC: 24.5 ng·h/mL
[1]; 0.4 mg, 1107V9221 (Phase 2b), 0.4 mg, read-out: Empirical Bayesian-estimated AUCss, Geometric Mean
  AUC: 41.6 ng·h/mL
[1]; 0.4 mg, 1107V9221 (Phase 2b), 0.4 mg, read-out: Empirical Bayesian-estimated AUCss, Mean
  AUC: 43.8 ng·h/mL
[1]; 0.4 mg, 1107V9221 (Phase 2b), 0.4 mg, read-out: Empirical Bayesian-estimated AUCss, Median
  AUC: 38.2 ng·h/mL
[2]; Study 1314 V9231 (Phase 3)
  proportion of responders: 47.6%
[2]; Study 1315 V9232 (Phase 3)
  proportion of responders: 52.5%
